Reference: patent publication US7972814B2, “Antimicrobial polypeptides from Pseudoplectania nigrella” (Novozymes Adenivro Biotech A/S, priority 2001, dated 2011)

How the values were obtained:
[1] = test system: E. coli; assay: Growth inhibition of E. coli upon induction of endogenous Plectasin expression (suicide expression system); format: cell-based
Method: In order to evaluate whether E. coli was growth inhibited in liquid media upon induction of endogenous Plectasin expression, the following experiment was conducted as disclosed in the examples of international patent application WO 00/73433. Briefly, fresh overnight cultures of cells containing either pDRS-18-plectasin, pDR-18-plectasin, pHH or pHHA plasmid were diluted 300-fold into 150 micro liter of LB or LB containing 0.1% arabinose in a microtiter plate and incubated at 37 degrees Celsius with vigorous shaking. The growth curve was monitored by measuring OD450 at regular intervals using an ELISA reader.

[2] = test system: Bacillus subtilis; assay: Antimicrobial activity by radial diffusion assay; format: cell-based
Method: A modified version of a previously published protocol has been applied in the detection of antimicrobial activity (Lehrer et al., (1991) Ultrasensitive assays for endogenous antimicrobial polypeptides J Immunol Methods 137: 167-173). Target bacteria (10^6 colony forming units (CFU)) were added to 10 ml of underlay agarose (1% low electro-endosmosis agarose, 0.03% Trypticase soy broth, 10 mM sodium phosphat, pH 7.4, 37 degrees Celsius). Suspension was solidified on an INTEGRID Petri Dish (Becton Dickinson Labware, N.J.). A 3 mm Gel Puncher was used to make holes in the underlay agarose (Amersham Pharmacia Biotech, Sweden). Samples were added to the holes and incubated at 37 degrees Celsius, 3 hours. An overlay was poured on top and the plate was incubated overnight (LB media, 7.5% Agar). Antimicrobial activity was seen as bacterial clearing zones around the wells. Living cells was counterstained by adding 10 ml, 0.2 mM MTT (3-(4,5-Dimethylthiazol-2-yl)-2,5-diphenyltetrazolium bromide Thiazolyl blue). All standard protocols has been described elsewhere (Sambrook, Fritsch, and Maniatis, 1989).
To evaluate the anti-microbial activity of Plectasin, fermentation broths of recombinant Aspergillus oryzae were applied in 2-fold serial dilutions in a radial diffusion assay (described above). […]
The supernatants described above were analyzed in a radial diffusion assay as described in Example 5. […]

Plectasin
inhibition of cell growth ([1]; Plectasin directed to the periplasm): 41% | effect on cell growth ([1]; Plectasin expressed in the cytoplasm): did not affect cell growth | increase in antimicrobial activity of the peptide ([2]; produced in E. coli Origami-DE3 (inclusion bodies) versus the earlier E. coli host): 5-10 fold | largest clearing zone ([2]; undiluted fermentation broth of recombinant Aspergillus oryzae): 15 mm
